The values below come from patent US20220235064A1 (WELLMARKER BIO CO., LTD., priority 2019, published 2022).

The test system of assay [1] is cancer cell line KM12C, in which RON is activated. The assay can be described thus: Cell-killing efficacy in RON-activated cancer cell line (trypan blue). It counts as cell-based. The settings on record: Homo sapiens, 48 hours, trypan blue, n=2, read-out: Cell death (%) Cancer cell line KM12C. In a few lines:
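KM12C cells seeded 1×10^5 per 60 mm^2 dish in MEM + 10% FBS, then exposed 24 h later to compound at 1 μM or 5 μM for 48 h.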

The test system is the same in assay [2]. The assay can be described thus: Cell growth inhibitory ability in RON-activated cancer cell line (MTS). It counts as cell-based. As to conditions: Homo sapiens, 48 hours, absorbance 490 nm. A digest of the protocol:
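KM12C cells (RON-activated, MEM with FBS) exposed to compound […] for 48 h. MTS added 24 h after treatment ended, incubated 4 h at 37° C, absorbance read at 490 nm. IC50 derived from absorbance.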

The target in the next assay is T1, RON tyrosine kinase (Homo sapiens, UniProt Q04912).
T1 construct: purchased Carna Bioscience
Put plainly: Enzyme inhibitory activity against RON tyrosine kinase (TR-FRET). It counts as biochemical. The settings on record: RON (Carna Bioscience). A digest of the protocol:
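Recombinant RON was preincubated with compound for 15 min at RT in 50 mM HEPES pH 7.5, 10 mM MgCl2, 1 mM EGTA, 2 mM DTT, 0.01% Tween-20. Enzyme (0.4 nM), ATP (60 μM) and tyrosine peptide (400 nM) were prepared at 2×, 4× and 4× final. After 60 min at RT, EDTA/Eu-anti-phosphotyrosine stop; IC50 from 665 nm TR-FRET emission.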

Counter-ions that a name gives are not always drawn.

T1 sequence (Q04912 25-1400): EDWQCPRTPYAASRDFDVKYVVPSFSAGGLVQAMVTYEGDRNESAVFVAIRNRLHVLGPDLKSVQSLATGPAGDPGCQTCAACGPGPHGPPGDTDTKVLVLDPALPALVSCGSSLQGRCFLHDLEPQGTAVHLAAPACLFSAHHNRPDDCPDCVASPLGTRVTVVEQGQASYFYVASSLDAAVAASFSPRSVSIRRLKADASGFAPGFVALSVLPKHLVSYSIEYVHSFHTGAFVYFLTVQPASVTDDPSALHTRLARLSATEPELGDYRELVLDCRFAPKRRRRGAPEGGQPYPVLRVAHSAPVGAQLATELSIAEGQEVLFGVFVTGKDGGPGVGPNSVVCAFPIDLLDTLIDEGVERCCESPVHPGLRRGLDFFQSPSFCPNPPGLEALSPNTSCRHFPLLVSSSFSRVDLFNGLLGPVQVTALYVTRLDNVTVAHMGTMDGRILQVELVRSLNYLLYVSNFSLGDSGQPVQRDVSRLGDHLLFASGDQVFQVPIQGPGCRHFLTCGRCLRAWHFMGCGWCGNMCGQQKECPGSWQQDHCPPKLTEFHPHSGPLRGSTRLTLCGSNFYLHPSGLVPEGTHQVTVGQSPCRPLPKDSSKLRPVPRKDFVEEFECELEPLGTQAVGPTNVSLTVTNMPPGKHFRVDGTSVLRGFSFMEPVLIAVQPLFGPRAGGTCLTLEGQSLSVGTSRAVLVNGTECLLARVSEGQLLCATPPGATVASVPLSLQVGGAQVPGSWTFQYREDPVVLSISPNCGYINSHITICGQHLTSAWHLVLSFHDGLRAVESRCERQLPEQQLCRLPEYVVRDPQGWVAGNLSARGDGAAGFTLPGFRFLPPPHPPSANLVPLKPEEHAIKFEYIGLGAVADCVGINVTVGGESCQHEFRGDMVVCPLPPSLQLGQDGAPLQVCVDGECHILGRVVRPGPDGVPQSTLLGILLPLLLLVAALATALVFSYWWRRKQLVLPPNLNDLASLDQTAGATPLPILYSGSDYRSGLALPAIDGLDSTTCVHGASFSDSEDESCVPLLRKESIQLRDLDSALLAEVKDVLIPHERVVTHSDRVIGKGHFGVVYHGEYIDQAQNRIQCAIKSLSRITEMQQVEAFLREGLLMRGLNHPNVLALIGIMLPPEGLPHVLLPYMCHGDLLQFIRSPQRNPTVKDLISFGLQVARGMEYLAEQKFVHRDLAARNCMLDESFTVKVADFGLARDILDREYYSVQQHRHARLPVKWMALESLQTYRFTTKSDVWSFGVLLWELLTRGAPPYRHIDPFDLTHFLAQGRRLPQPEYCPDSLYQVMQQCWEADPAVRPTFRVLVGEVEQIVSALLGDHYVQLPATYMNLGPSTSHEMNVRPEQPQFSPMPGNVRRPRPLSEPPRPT

As for `O=C(Nc1ccc(Oc2ccnc3cc(OCCCN4CCCCC4)ccc23)c(F)c1)c1c2c(cn(-c3ccc(F)cc3)c1=O)CCO2` [Example 161], in assay [1], the cytotoxicity at 1 µM was 23.4% and the cytotoxicity at 5 µM came to 22%. Moreover, in assay [2], the IC50 was 7 nM. The compound also had an IC50 at RON tyrosine kinase of 0.61 nM.

Regarding `CN1CCN(CCCOc2ccc3c(Oc4ccc(NC(=O)c5c6c(cn(-c7ccc(F)cc7)c5=O)CCO6)cc4F)ccnc3c2)CC1` [Example 160, N-(3-Fluoro-4-((7-(3-(4-methylpiperazin-1-yl)propoxy)quinolin-4-yl)oxy)phenyl)-5-(4-fluorophenyl)-6-oxo-2,3,5,6-tetrahydrofuro[3,2-c]pyridine-7-carboxamide], in assay [1], the cytotoxicity at 1 µM was 12.7% and the cytotoxicity at 5 µM amounted to 19.4%. Inhibition in assay [2] was half-maximal at 6 nM (IC50). The compound also came in with a 50% inhibitory concentration (IC50) against RON tyrosine kinase of 1.01 nM.

Turning to `CNC(=O)c1cc2c(Oc3ccc(NC(=O)c4c5c(cn(-c6ccc(F)cc6)c4=O)CCO5)cc3F)ccnc2cc1OCCCN1CCOCC1` [Example 164, N-(3-Fluoro-4-((6-(methylcarbamoyl)-7-(3-morpholinopropoxy)quinolin-4-yl)oxy)phenyl)-5-(4-fluorophenyl)-6-oxo-2,3,5,6-tetrahydrofuro[3,2-c]pyridine-7-carboxamide], in assay [1], the cytotoxicity at 1 µM stood at 19.4% and the cytotoxicity at 5 µM turned out to be 29.7%. The compound also registered an IC50 in assay [2] of 1 nM. Moreover, the IC50 on RON tyrosine kinase came to 1.46 nM.

With `COc1cc2c(Oc3ccc(NC(=O)c4c5c(cn(-c6ccc(F)cc6)c4=O)CCO5)cc3F)ccnc2cc1OCCN1CCOCC1` [Example 78, N-(3-Fluoro-4-((6-methoxy-7-(2-morpholinoethoxy)quinolin-4-yl)oxy)phenyl)-5-(4-fluorophenyl)-6-oxo-2,3,5,6-tetrahydrofuro[3,2-c]pyridine-7-carboxamide], in assay [1], the cytotoxicity at 1 µM amounted to 23.5% and the cytotoxicity at 5 µM was found to be 23.9%. For the same compound, in assay [2], the IC50 was 2 nM. Further, the IC50 against RON tyrosine kinase was 2.63 nM.

`COc1cc2ncnc(Oc3ccc(NC(=O)c4c5c(cn(-c6ccc(F)cc6)c4=O)CCO5)cc3F)c2cc1OC` [Example 46, N-(4-((6,7-Dimethoxyquinazolin-4-yl)oxy)-3-fluorophenyl)-5-(4-fluorophenyl)-6-oxo-2,3,5,6-tetrahydrofuro[3,2-c]pyridine-7-carboxamide]: the cytotoxicity at 1 µM in assay [1] turned out to be 23.7%. Further, the cytotoxicity at 5 µM in assay [1] is 27.4%. Also, the IC50 in assay [2] was determined as 6 nM; against RON tyrosine kinase it was 2.39 nM.

As to `O=C(Nc1ccc(Oc2ccnc3cc(-c4ccccn4)sc23)c(F)c1)c1c2c(cn(-c3ccc(F)cc3)c1=O)CCO2` [Example 3, N-(3-Fluoro-4-((2-(pyridin-2-yl)thieno[3,2-b]pyridin-7-yl)oxy)phenyl)-5-(4-fluorophenyl)-6-oxo-2,3,5,6-tetrahydrofuro[3,2-c]pyridine-7-carboxamide], in assay [1], the cytotoxicity at 1 µM worked out at 24.6% and the cytotoxicity at 5 µM was found to be 34%. For the same compound, in assay [2], the IC50 was 3 nM. At RON tyrosine kinase, this compound showed a 50% inhibitory concentration (IC50) of 2.39 nM.

For the compound `CNC(=O)c1cc2c(Oc3ccc(NC(=O)c4c5c(cn(-c6ccc(F)cc6)c4=O)CCO5)cc3F)ccnc2cc1OC` [Example 48, N-(3-Fluoro-4-((7-methoxy-6-(methylcarbamoyl)quinolin-4-yl)oxy)phenyl)-5-(4-fluorophenyl)-6-oxo-2,3,5,6-tetrahydrofuro[3,2-c]pyridine-7-carboxamide], in assay [1], the cytotoxicity at 1 µM came to 18.9% and the cytotoxicity at 5 µM worked out at 15.5%. This compound also showed an IC50 in assay [2] of 1 nM. The 50% inhibitory concentration (IC50) against RON tyrosine kinase was 0.85 nM.

With `O=C(Nc1ccc(Oc2ccnc3cc(-c4ccc(CN5CCOCC5)cn4)sc23)c(F)c1)c1c2c(cn(-c3ccc(F)cc3)c1=O)CCO2` [Example 5, N-(3-Fluoro-4-((2-(5-(morpholinomethyl)pyridin-2-yl)thieno[3,2-b]pyridin-7-yl)oxy)phenyl)-5-(4-fluorophenyl)-6-oxo-2,3,5,6-tetrahydrofuro[3,2-c]pyridine-7-carboxamide hydrochloride], in assay [1], the cytotoxicity at 1 µM worked out at 21.2% and the cytotoxicity at 5 µM amounted to 25.9%. Besides, in assay [2], 4 nM corresponded to half-maximal inhibition (IC50). This compound also yielded a half-maximal inhibitory concentration (IC50) on RON tyrosine kinase of 5.87 nM.

For `O=C(Nc1ccc(Oc2ccnc3cc(OCCCN4CCOCC4)c(Cl)cc23)c(F)c1)c1c2c(cn(-c3ccc(F)cc3)c1=O)CCO2` [Example 172, N-(4-((6-Chloro-7-(3-morpholinopropoxy)quinolin-4-yl)oxy)-3-fluorophenyl)-5-(4-fluorophenyl)-6-oxo-2,3,5,6-tetrahydrofuro[3,2-c]pyridine-7-carboxamide], in assay [1], the cytotoxicity at 1 µM was 3.19% and the cytotoxicity at 5 µM stood at 11.6%. The compound also returned a 50% inhibitory concentration (IC50) in assay [2] of 15 nM. Besides, at RON tyrosine kinase, half-maximal inhibition (IC50) was put at 7.44 nM.

On to `COc1cc2nccc(Oc3ccc(NC(=O)c4c5c(cn(-c6ccc(F)cc6)c4=O)CCO5)cc3F)c2cc1C(=O)NCCN1CCOCC1` [Example 50, N-(3-Fluoro-4-((7-methoxy-6-((2-morpholinoethyl)carbamoyl)quinolin-4-yl)oxy)phenyl)-5-(4-fluorophenyl)-6-oxo-2,3,5,6-tetrahydrofuro[3,2-c]pyridine-7-carboxamide], for which, in assay [1], the cytotoxicity at 1 µM turned out to be 19.4% and the cytotoxicity at 5 µM worked out at 32.3%. The compound also had an IC50 in assay [2] of 2 nM. For the same compound, the 50% inhibitory concentration (IC50) against RON tyrosine kinase is 1.18 nM.

Take `CNC(=O)c1cc2nccc(Oc3ccc(NC(=O)c4c5c(cn(-c6ccc(F)cc6)c4=O)CCO5)cc3F)c2cc1OCCN1CCOCC1` [Example 166, N-(3-Fluoro-4-((7-(methylcarbamoyl)-6-(2-morpholinoethoxy)quinolin-4-yl)oxy)phenyl)-5-(4-fluorophenyl)-6-oxo-2,3,5,6-tetrahydrofuro[3,2-c]pyridine-7-carboxamide]: the cytotoxicity at 1 µM in assay [1] worked out at 11.4%. Moreover, in assay [1], the cytotoxicity at 5 µM worked out at 14.9%. Moreover, the IC50 in assay [2] came out at 16 nM; on RON tyrosine kinase it was 1.9 nM.

Turning to `COc1cc2nccc(Oc3ccc(NC(=O)c4c5c(cn(-c6ccccc6)c4=O)CCO5)cc3F)c2cc1OC` [Example 41, N-(4-((6,7-Dimethoxyquinolin-4-yl)oxy)-3-fluorophenyl)-6-oxo-5-phenyl-2,3,5,6-tetrahydrofuro[3,2-c]pyridine-7-carboxamide], in assay [1], the cytotoxicity at 1 µM came out at 16% and the cytotoxicity at 5 µM is 21.4%. Moreover, 2 nM corresponded to half-maximal inhibition in assay [2] (IC50). In addition, the IC50 against RON tyrosine kinase was 2.86 nM.

For `O=C(Nc1ccc(Oc2ccnc3ccc(OCCCN4CCOCC4)cc23)c(F)c1)c1c2c(cn(-c3ccc(F)cc3)c1=O)CCO2` [Example 178, N-(3-Fluoro-4-((6-(3-morpholinopropoxy)quinolin-4-yl)oxy)phenyl)-5-(4-fluorophenyl)-6-oxo-2,3,5,6-tetrahydrofuro[3,2-c]pyridine-7-carboxamide], the IC50 in assay [2] came to 25 nM; at RON tyrosine kinase, 0.45 nM.

Consider `Cn1cnc(-c2cc3nccc(Oc4ccc(NC(=O)c5c6c(cn(-c7ccccc7)c5=O)CCO6)cc4F)c3s2)c1` [Example 9, N-(3-Fluoro-4-((2-(1-methyl-1H-imidazol-4-yl)thieno[3,2-b]pyridin-7-yl)oxy)phenyl)-6-oxo-5-phenyl-2,3,5,6-tetrahydrofuro[3,2-c]pyridine-7-carboxamide], for which the values for the IC50 (in assay [2]; at RON tyrosine kinase) were 0.6 nM and 0.5 nM, respectively.

In the case of `O=C(Nc1ccc(Oc2ccnc3cc(-c4ccccn4)sc23)c(F)c1)c1c2c(cn(-c3ccccc3)c1=O)CCO2` [Example 4], the figures for the IC50 (in assay [2]; against RON tyrosine kinase) were 8 nM and 0.35 nM, respectively.

Take `COc1cc2nccc(Oc3ccc(NC(=O)c4c5c(cn(-c6ccc(F)cc6)c4=O)CCO5)cc3F)c2cc1NC(=O)CN1CCOCC1` [Example 53, N-(3-Fluoro-4-((7-methoxy-6-(2-morpholinoacetamido)quinolin-4-yl)oxy)phenyl)-5-(4-fluorophenyl)-6-oxo-2,3,5,6-tetrahydrofuro[3,2-c]pyridine-7-carboxamide]: the figures for the IC50 (in assay [2]; on RON tyrosine kinase) were 3 nM and 1.03 nM, respectively.

On to `N#Cc1cc2c(Oc3ccc(NC(=O)c4c5c(cn(-c6ccc(F)cc6)c4=O)CCO5)cc3F)ccnc2cc1OCCN1CCOCC1` [Example 173, N-(4-((6-Cyano-7-(2-morpholinoethoxy)quinolin-4-yl)oxy)-3-fluorophenyl)-5-(4-fluorophenyl)-6-oxo-2,3,5,6-tetrahydrofuro[3,2-c]pyridine-7-carboxamide], for which the results for the IC50 (in assay [2]; on RON tyrosine kinase) were 3 nM and 0.58 nM, respectively.

As for `COc1cc2c(Oc3ccc(NC(=O)c4c5c(cn(-c6ccccc6)c4=O)CCO5)cc3F)ccnc2cc1OCCN1CCOCC1` [Example 79, N-(3-Fluoro-4-((6-methoxy-7-(2-morpholinoethoxy)quinolin-4-yl)oxy)phenyl)-6-oxo-5-phenyl-2,3,5,6-tetrahydrofuro[3,2-c]pyridine-7-carboxamide], the IC50 in assay [2] stood at 1 nM; on RON tyrosine kinase it was 0.78 nM.

Regarding `CN1CCC(Nc2cc(Oc3ccc(NC(=O)c4c5c(cn(-c6ccc(F)cc6)c4=O)CCO5)cc3F)ccn2)CC1` [Example 63, N-(3-Fluoro-4-((2-((1-methylpiperidin-4-yl)amino)pyridin-4-yl)oxy)phenyl)-5-(4-fluorophenyl)-6-oxo-2,3,5,6-tetrahydrofuro[3,2-c]pyridine-7-carboxamide], the IC50 came to 2280 nM in assay [2] and 20.6 nM on RON tyrosine kinase.
